One assay deals with T1, human M4 receptor (Homo sapiens, UniProt P08173).
T1 construct: expressed in transfected cells
T1 sequence (P08173 1-479): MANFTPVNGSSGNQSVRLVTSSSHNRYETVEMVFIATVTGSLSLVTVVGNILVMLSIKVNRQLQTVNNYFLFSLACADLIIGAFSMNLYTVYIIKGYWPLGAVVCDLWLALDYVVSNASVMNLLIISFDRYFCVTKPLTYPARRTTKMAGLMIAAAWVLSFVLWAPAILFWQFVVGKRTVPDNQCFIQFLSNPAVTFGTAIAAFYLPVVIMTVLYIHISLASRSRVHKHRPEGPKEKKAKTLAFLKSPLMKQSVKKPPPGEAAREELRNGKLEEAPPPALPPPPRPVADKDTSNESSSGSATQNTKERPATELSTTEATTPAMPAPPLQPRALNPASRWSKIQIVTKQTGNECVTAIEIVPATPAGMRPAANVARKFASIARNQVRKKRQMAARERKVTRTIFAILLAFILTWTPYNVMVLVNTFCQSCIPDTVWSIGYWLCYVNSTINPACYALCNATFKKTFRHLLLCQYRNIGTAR
In words: M4 GTPγS PAM assay. The assay is classed as biochemical. As to conditions: membranes of CHO-K1 cells stably expressing human M4; EC20 acetylcholine 40 nM; 35S-GTP. The method, then:
The M4 GTPγS PAM method was used. Membranes were prepared for GTPgS binding assays from CHO-K1 cells stably expressing human M4 receptor. Briefly, cells were grown in 5-layer cell culture flasks. Cells were washed with 50 mL of PBS and then dissociated with 0.05% trypsin. Dissociated cells were then collected by centrifugation at 650×g for 8 minutes at 4° C. Pellets were washed again in PBS by centrifugation and resuspended in 30 mL of 20 mM HEPES, 10 mM EDTA, pH 7.4. After sitting on ice for 30 min, membranes were collected by centrifugation at 50000×g for 15′ at 4° C., resuspended in 30 mL of 20 mM HEPES, 0.1 mM EDTA, pH 7.4 and collected again by centrifugation. Pellets were then washed twice by centrifugation in 30 mL of 20 mM HEPES, pH 7.4, and stored at −80° C. until the day of the assay. On the day of the assay, pellets were thawed on ice and resuspended in 1 mL of 20 mM HEPES, pH 7.4, 10 mM MgCl2, 100 mM NaCl using dounce homogenization. Membrane protein concentration is determined by BCA protein assay (Promega, Madison, WI) according to Promega guidelines.
On the day of the assay, serial dilutions of test PAM compounds were brought up in assay buffer (20 mM HEPES, 10 mM MgCl2, 100 mM NaCl) at 4× final assay concentration. […] of membrane homogenates (containing […] of membrane protein) were prepared in assay buffer supplemented with GDP at 4× final assay concentration (final assay concentration of GDP is 5 μM for M2 and 0.1 μM for M4) and dispensed into 96 well polypropylene, U-bottom Greiner plates. […] of vehicle or test PAM compound at 4× of final assay concentration diluted in the assay buffer were added to membrane and plates are incubated for 10-15 minutes at room temperature with gentle shaking. Then, […] of EC20 acetylcholine in assay buffer at 4× final assay concentration was added to assay plates (EC20 final assay concentrations was 40 nM for human M4).
Plates were then incubated, with shaking, for an additional 10-15 minutes. […] of 0.4 nM 35S-GTP (Perkin Elmer, Waltham, MA) in assay buffer was added to assay mixtures. The binding reaction is left on the shaker for 1 hour at room temperature. Membranes in assay reactions were then transferred to GF/C filter plates (Unifilter, Perkin Elmer) and washed three times using a FilterMate Harvester (Perkin Elmer) with cold assay buffer containing no GDP. Filter plates were then dried at 40° C. overnight followed by the addition of […] of Beta Plate Scintillation liquid. Plates are top and bottom sealed before being read on TopCount scintillation counter (Perkin Elmer, Waltham, MA).

The next assay deals with T2, rM4 receptors (Rattus norvegicus, UniProt P08485).
T2 construct: expressed in transfected cells; host or cells: CHO cells
T2 sequence (P08485 1-478): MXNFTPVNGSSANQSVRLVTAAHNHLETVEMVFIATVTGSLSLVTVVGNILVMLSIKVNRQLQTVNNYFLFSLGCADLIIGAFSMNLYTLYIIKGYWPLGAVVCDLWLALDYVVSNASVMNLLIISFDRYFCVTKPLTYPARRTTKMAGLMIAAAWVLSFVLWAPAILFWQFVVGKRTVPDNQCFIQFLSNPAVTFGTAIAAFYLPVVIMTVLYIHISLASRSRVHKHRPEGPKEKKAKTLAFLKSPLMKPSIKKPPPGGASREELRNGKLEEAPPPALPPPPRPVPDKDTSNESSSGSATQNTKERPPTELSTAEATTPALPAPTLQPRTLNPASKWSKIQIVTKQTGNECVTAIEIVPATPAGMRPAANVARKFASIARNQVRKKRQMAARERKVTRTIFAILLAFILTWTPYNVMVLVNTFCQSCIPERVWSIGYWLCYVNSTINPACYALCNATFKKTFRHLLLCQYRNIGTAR
Nature of the assay: Rat M4 PAM pERK assay. It is filed as cell-based. The settings on record: CHO cells expressing rM4; EC20 of acetylcholine (10 nM final); TR-FRET. The method, then:
(§1) Chinese hamster ovary (CHO) cells expressing either hM4 or rM4 receptors were frozen in assay ready vials (5×10^6 cells/vial) after bulking-up in culture. The day before an assay, vial(s) were thawed and cells seeded in 384 well white proxiplates at 1000/well for hM4 cells and at 2000/well for rM4 cells, in 10 μL of growth media (Hams/F12 with glutamax and 10% FCS) and incubated overnight at 37° C./5% CO2.
(§2) On the following morning, the growth media was removed by ‘flicking out’ over a bin, patting the inverted plate onto tissue, and then replacing with 10 μL of wash media (Hams/F12 with glutamax and 8 mM HEPES, NB: serum free). Then, the wash media was removed in the same way and replaced with 8 μL/well of the serum free media. Plates were then re-incubated for a further 4 hours at 37° C./5% CO2.
(§3) Compounds for testing were solubilized to 10 mM in DMSO and compound addition plates, consisting of ten-point concentration response curves (CRC) in duplicate points (10 μM top concentration, 1/2 log dilution series), were prepared by acoustic dispensing and the compound management group.
(§4) After the 4-hour incubation in serum free media, a 4 μL aliquot of the 3× compound solution containing an EC20 of acetylcholine (10 nM final concentration) was added to the cell plate using a 384 well plate to plate transfer. Then, the plate lid was replaced, and the cells incubated for 5 mins at 37° C./5% CO2. Following this final incubation, all cellular processes were stopped by the addition of 4 μL/well of lysis and blocking buffer and plates were incubated for 30 minutes at RT on an orbital shaker (gentle setting). Then, a final addition of 4 μL/well of antibody detection mix, containing both the Europium-Cryptate (donor) and d2 (acceptor) tagged detection components, was added followed by a further 2-hour incubation at RT, and then the plate was read using a TR-FRET (time resolved fluorescence resonance energy transfer) based protocol.
(In general: In TR-FRET formats the signal depends on donor and acceptor labels being close together.)

In a further assay the target is T3, hM4 receptors (Homo sapiens, UniProt P08173).
T3 construct: expressed in transfected cells; host or cells: CHO cells
T3 sequence (P08173 1-479): T1 sequence (P08173 1-479)
Nature of the assay: Human M4 PAM pERK assay. The settings on record: CHO cells expressing hM4; EC20 of acetylcholine (10 nM final); TR-FRET. It is filed as cell-based. The method, then:
as §1, §2, §3, §4

Molecules are shown by their SMILES.

What is called EC50 is the midpoint of the concentration-response curve. Read a high EC50 as a need for much substance. Consider `COc1nc2c(c(OC)n1)CN(C(=O)CC1CN(c3ccnc(C(F)(F)F)c3)C1)C2` [Compound I-64, 1-(2,4-Dimethoxy-5,7-dihydro-6H-pyrrolo[3,4-d]pyrimidin-6-yl)-2-(1-(2-(trifluoromethyl)pyridin-4-yl)azetidin-3-yl)ethan-1-one], for which the EC50 at human M4 receptor is 500 to 2000 nM; on rM4 receptors, no less than 2000 nM; on hM4 receptors it was 100 to 500 nM.
For `COc1nc2c(c(OC)n1)C(C)N(C(=O)CC1CN(c3ccnc(C(F)(F)F)c3)C1)C2` (single isomer, unassigned) [Compound I-69, 1-(2,4-Dimethoxy-5-methyl-5,7-dihydro-6H-pyrrolo[3,4-d]pyrimidin-6-yl)-2-(1-(2-(trifluoromethyl)pyridin-4-yl)azetidin-3-yl)ethan-1-one], in that order: no less than 2000 nM, no less than 2000 nM and no less than 2000 nM.
For `COc1nc(OC)c2c(n1)C(C)N(C(=O)CC1CN(c3ccnc(C(F)(F)F)c3)C1)C2` (single isomer, unassigned) [Compound I-71, 1-(2,4-Dimethoxy-7-methyl-5,7-dihydro-6H-pyrrolo[3,4-d]pyrimidin-6-yl)-2-(1-(2-(trifluoromethyl)pyridin-4-yl)azetidin-3-yl)ethan-1-one], in that order: 500 to 2000 nM, no less than 2000 nM and 500 to 2000 nM.
`COc1nc(C#N)nc2c1C(C)N(C(=O)CC1CN(c3ccnc(OC4CC4)c3)C1)C2` (single isomer, unassigned) [Compound I-14, 6-(2-(1-(2-Cyclopropoxypyridin-4-yl)azetidin-3-yl)acetyl)-4-methoxy-5-methyl-6,7-dihydro-5H-pyrrolo[3,4-d]pyrimidine-2-carbonitrile]: the EC50 is no more than 100 nM on human M4 receptor, 500 to 2000 nM at rM4 receptors and no more than 100 nM at hM4 receptors.
On to `COc1nc(C)nc2c1C(C)N(C(=O)CC1CN(c3cccc(C#N)c3)C1)C2` (single isomer, unassigned) [Compound I-55, 3-(3-(2-(4-Methoxy-2,5-dimethyl-5,7-dihydro-6H-pyrrolo[3,4-d]pyrimidin-6-yl)-2-oxoethyl)azetidin-1-yl)benzonitrile], for which the EC50 is no less than 2000 nM on human M4 receptor, 500 to 2000 nM on rM4 receptors and 500 to 2000 nM on hM4 receptors.
As for `COc1nc2c(c(OC(F)F)n1)CN(C(=O)CC1CN(c3cccnc3)C1)C2` [Compound I-76, 1-(4-(Difluoromethoxy)-2-methoxy-5,7-dihydro-6H-pyrrolo[3,4-d]pyrimidin-6-yl)-2-(1-(pyridin-3-yl)azetidin-3-yl)ethan-1-one], the EC50 at human M4 receptor, at rM4 receptors and at hM4 receptors was no less than 2000 nM each time.
Consider `COc1nc(C#N)nc2c1C(C)N(C(=O)CC1CN(c3ccc(C4CC4)c(F)c3)C1)C2` (single isomer, unassigned) [Compound I-21, 6-(2-(1-(4-Cyclopropyl-3-fluorophenyl)azetidin-3-yl)acetyl)-4-methoxy-5-methyl-6,7-dihydro-5H-pyrrolo[3,4-d]pyrimidine-2-carbonitrile], for which the EC50 on human M4 receptor, on rM4 receptors and at hM4 receptors was no less than 2000 nM in each case.
For the compound `COc1nc(C)nc2c1CN(C(=O)CC1CN(c3ccnc(C(F)(F)F)c3)C1)C2C` (single isomer, unassigned) [Compound I-62, 1-(4-Methoxy-2,7-dimethyl-5,7-dihydro-6H-pyrrolo[3,4-d]pyrimidin-6-yl)-2-(1-(2-(trifluoromethyl)pyridin-4-yl)azetidin-3-yl)ethan-1-one], the concentration for a half-maximal effect (EC50) is 100 to 500 nM at human M4 receptor, 500 to 2000 nM on rM4 receptors and 100 to 500 nM at hM4 receptors.
Take `COc1nc(C)nc2c1C(C)N(C(=O)CC1CN(c3ccnc(C(F)(F)F)c3)C1)C2` (racemic) [Compound I-51, 1-(4-Methoxy-2,5-dimethyl-5,7-dihydro-6H-pyrrolo[3,4-d]pyrimidin-6-yl)-2-(1-(2-(trifluoromethyl)pyridin-4-yl)azetidin-3-yl)ethan-1-one]: the figures for the EC50 at human M4 receptor, at rM4 receptors and on hM4 receptors were 100 to 500 nM, 500 to 2000 nM and 100 to 500 nM, respectively.
For the compound `COc1nc(OC)c2c(n1)C(C)N(C(=O)CC1CN(c3ccnc(C(F)(F)F)c3)C1)C2` (single isomer, unassigned) [Compound I-70, 1-(2,4-Dimethoxy-7-methyl-5,7-dihydro-6H-pyrrolo[3,4-d]pyrimidin-6-yl)-2-(1-(2-(trifluoromethyl)pyridin-4-yl)azetidin-3-yl)ethan-1-one], the values for the EC50 on human M4 receptor, at rM4 receptors and at hM4 receptors were no more than 100 nM, no less than 2000 nM and 500 to 2000 nM, respectively.
In the case of `COc1nc(C)nc2c1CN(C(=O)CC1(F)CN(c3ccnc(C(F)(F)F)c3)C1)C2` [Compound I-42, 2-(3-Fluoro-1-(2-(trifluoromethyl)pyridin-4-yl)azetidin-3-yl)-1-(4-methoxy-2-methyl-5,7-dihydro-6H-pyrrolo[3,4-d]pyrimidin-6-yl)ethan-1-one], the concentration giving a half-maximal response (EC50) on human M4 receptor and on hM4 receptors was no less than 2000 nM throughout.
For the compound `Cc1nc2c(c(OC3CC3)n1)CN(C(=O)CC1CN(c3ccnc(C(F)(F)F)c3)C1)C2` [Compound I-49, 1-(4-Cyclopropoxy-2-methyl-5,7-dihydro-6H-pyrrolo[3,4-d]pyrimidin-6-yl)-2-(1-(2-(trifluoromethyl)pyridin-4-yl)azetidin-3-yl)ethan-1-one], the EC50 at human M4 receptor and at hM4 receptors was no less than 2000 nM in each case.

The values are drawn from patent US20260209234A1, “SUBSTITUTED DIHYDROPYRROLO[3,4-D]PYRIMIDINE COMPOUNDS AND THEIR USE IN TREATING MEDICAL CONDITIONS” (Karuna Therapeutics, Inc., priority 2022, published 2026).
